In patent US9694016B2 (Novartis AG, priority 2013, dated 2017) one finds IC50 data, which are given here for 32 compounds.

For one assay, the target named is b-Raf (V600E) (Homo sapiens (Human), UniProt P15056, V600E). The conditions noted are these: read-out: b-Raf IC-50; AlphaScreen, 60 min pre-incubation, 3 hours reaction.
Sequence of b-Raf (V600E) (P15056 whole entry V600E): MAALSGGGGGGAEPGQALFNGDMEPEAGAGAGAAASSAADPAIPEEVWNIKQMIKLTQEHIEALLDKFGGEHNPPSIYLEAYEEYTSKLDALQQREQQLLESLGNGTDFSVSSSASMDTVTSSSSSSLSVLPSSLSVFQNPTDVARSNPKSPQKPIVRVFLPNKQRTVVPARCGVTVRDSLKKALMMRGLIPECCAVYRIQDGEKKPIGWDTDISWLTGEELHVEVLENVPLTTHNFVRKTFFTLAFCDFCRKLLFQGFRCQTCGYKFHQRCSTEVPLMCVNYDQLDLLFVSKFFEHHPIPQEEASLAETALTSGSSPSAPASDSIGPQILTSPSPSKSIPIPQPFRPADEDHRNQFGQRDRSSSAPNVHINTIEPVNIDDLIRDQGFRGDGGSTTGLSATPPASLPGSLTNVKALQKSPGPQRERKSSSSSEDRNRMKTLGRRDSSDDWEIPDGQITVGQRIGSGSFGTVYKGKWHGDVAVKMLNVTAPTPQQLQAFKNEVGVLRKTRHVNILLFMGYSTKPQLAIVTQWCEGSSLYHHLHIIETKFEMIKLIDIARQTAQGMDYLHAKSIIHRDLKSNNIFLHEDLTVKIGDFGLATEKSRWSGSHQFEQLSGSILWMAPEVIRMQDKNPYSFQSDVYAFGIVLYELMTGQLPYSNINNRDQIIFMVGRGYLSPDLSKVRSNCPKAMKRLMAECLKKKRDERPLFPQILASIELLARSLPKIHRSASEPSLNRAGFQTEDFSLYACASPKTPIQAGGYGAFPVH
Turning to `Cc1ncc(NC(=O)c2ccnc(C(C)(C)O)c2)cc1-c1cc(N2CCOCC2)n(C)c(=O)c1` [Example 501, N-(1′,2-dimethyl-6′-morpholino-2′-oxo-1′,2′-dihydro-[3,4′-bipyridin]-5-yl)-2-(2-hydroxypropan-2-yl)isonicotinamide], the IC50 turned out to be 32.2 nM. Same read-out and setting: the figure for `Cc1ccc(NC(=O)c2ccnc(C(C)(C)C#N)c2)cc1-c1cc(N2CCOCC2)nc(NC2CNC2)n1` [Example 786, N-(3-(2-(azetidin-3-ylamino)-6-morpholinopyrimidin-4-yl)-4-methylphenyl)-2-(2-cyanopropan-2-yl)isonicotinamide] is 14.9 nM; for `Cc1ccc(NC(=O)c2ccnc(C(C)(C)C#N)c2)cc1-c1cc(N2CCOC(C)(C)C2)c(=O)n(C)n1` [Example 666, 2-(2-cyanopropan-2-yl)-N-(3-(5-(2,2-dimethylmorpholino)-1-methyl-6-oxo-1,6-dihydropyridazin-3-yl)-4-methylphenyl)isonicotinamide] it is 7.8 nM. Take `Cc1ccc(NC(=O)c2ccnc(C(F)F)c2)cc1-c1cc(N2CCOCC2)n(C)c(=O)c1` [Example 486, 2-(difluoromethyl)-N-(4-methyl-3-(1-methyl-6-morpholino-2-oxo-1,2-dihydropyridin-4-yl)phenyl)isonicotinamide]: the IC50 was 1.1 nM. Still for that read-out and setting: with `Cc1ccc(NC(=O)c2ccnc(C(C)(C)C#N)c2)cc1-c1cc(N2CCOCC2)nc(N(C)C)n1` [Example 755, 2-(2-cyanopropan-2-yl)-N-(3-(2-(dimethylamino)-6-morpholinopyrimidin-4-yl)-4-methylphenyl)isonicotinamide] the figure was 17.8 nM. For the compound `Cc1ccc(NC(=O)c2ccnc(C(C)(C)F)c2)cc1-c1cc(N2CCOCC2)c(OC2CCOCC2)nn1` [Example 578, 2-(2-fluoropropan-2-yl)-N-(4-methyl-3-(5-morpholino-6-((tetrahydro-2H-pyran-4-yl)oxy)pyridazin-3-yl)phenyl)isonicotinamide], the IC50 was 0.8 nM. Turning to `Cc1ccc(NC(=O)c2cccc(C(F)(F)F)c2)cc1-c1nc2c(c(N3CCOCC3)n1)CNC2` [Example 836, N-(4-methyl-3-(4-morpholino-6,7-dihydro-5H-pyrrolo[3,4-d]pyrimidin-2-yl)phenyl)-3-(trifluoromethyl)benzamide], the IC50 stood at 3.1 nM. Same read-out and setting: with `Cc1ncc(NC(=O)c2ccnc(C(C)(C)F)c2)cc1-c1cc(N2CCOCC2)n2nccc2n1` [Example 790, 2-(2-fluoropropan-2-yl)-N-(6-methyl-5-(7-morpholinopyrazolo[1,5-a]pyrimidin-5-yl)pyridin-3-yl)isonicotinamide] the figure was 3.5 nM; with `Cc1ccc(NC(=O)c2ccnc(C(C)(C)C#N)c2)cc1-c1cc(N2C3CCC2COC3)c(=O)n(C)n1` [Example 669, N-(3-(5-(3-oxa-8-azabicyclo[3.2.1]octan-8-yl)-1-methyl-6-oxo-1,6-dihydropyridazin-3-yl)-4-methylphenyl)-2-(2-cyanopropan-2-yl)isonicotinamide], 10 nM; with `Cc1ccc(NC(=O)c2ccnc(C3(C#N)CC3)c2)cc1-c1cc(N2CCOCC2)n2nccc2n1` [Example 796, 2-(1-cyanocyclopropyl)-N-(4-methyl-3-(7-morpholinopyrazolo[1,5-a]pyrimidin-5-yl)phenyl)isonicotinamide], 0.7 nM. In the case of `CCOc1nnc(-c2cc(NC(=O)c3ccnc(C(C)(C)F)c3)cnc2C)cc1N1CCOCC1` [Example 610, N-(5-(6-ethoxy-5-morpholinopyridazin-3-yl)-6-methylpyridin-3-yl)-2-(2-fluoropropan-2-yl)isonicotinamide], the IC50 was found to be 4.5 nM.

As for `Cc1ncc(NC(=O)c2cccc(C(C)(C)S(C)(=O)=O)c2)cc1-c1cc(N2CCOCC2)n(C)c(=O)c1` [Example 512, N-(1′,2-dimethyl-6′-morpholino-2′-oxo-1′,2′-dihydro-[3,4′-bipyridin]-5-yl)-3-(2-(methylsulfonyl)propan-2-yl)benzamide], the IC50 was found to be 59.8 nM. The same measure, in the same setting: the figure for `CCNc1nc(-c2cc(NC(=O)c3ccnc(C(C)(C)O)c3)cnc2C)cc(N2CCOCC2)n1` [Example 723, N-(5-(2-(ethylamino)-6-morpholinopyrimidin-4-yl)-6-methylpyridin-3-yl)-2-(2-hydroxypropan-2-yl)isonicotinamide] is 34.8 nM; for `CCNc1nc(-c2cc(NC(=O)c3ccnc(C(C)(C)O)c3)ccc2C)cc(N2CCOCC2)n1` [Example 705, N-(3-(2-(ethylamino)-6-morpholinopyrimidin-4-yl)-4-methylphenyl)-2-(2-hydroxypropan-2-yl)isonicotinamide] it is 4.1 nM.

Staying with this assay, now noted: read-out: b-Raf IC-50; AlphaScreen, 60 min pre-incubation, reaction 3 hours at room temperature.
Turning to `CCC(F)(F)c1cc(C(=O)Nc2cnc(C)c(-c3cc(N4CCOCC4)c(S(C)(=O)=O)nn3)c2)ccn1` [Example 925, 2-(1,1-difluoropropyl)-N-(6-methyl-5-(6-(methylsulfonyl)-5-morpholinopyridazin-3-yl)pyridin-3-yl)isonicotinamide], the IC50 was found to be 12.2 nM.

In the case of `Cc1ncc(NC(=O)c2cc(C(F)(F)F)ccn2)cc1-c1cnc(OC2CCOCC2)c(N2CCOCC2)c1` [Example 942, N-(2-methyl-5′-morpholino-6′-((tetrahydro-2H-pyran-4-yl)oxy)-[3,3′-bipyridin]-5-yl)-4-(trifluoromethyl)picolinamide], the IC50 turned out to be 2.17 nM. Still for that read-out and setting: with `Cc1ccc(NC(=O)c2cnnc(C(F)(F)F)c2)cc1-c1cc(N2CCOCC2)c2nccn2c1` [Example 852] the figure was 0.7 nM; with `Cc1ccc(NC(=O)c2ccnc(C(C)(C)C#N)c2)cc1-c1cc(NC[C@@H](C)O)nc(N2CCOCC2)n1` [Example 1026, (R)-2-(2-cyanopropan-2-yl)-N-(3-(6-((2-hydroxypropyl)amino)-2-morpholinopyrimidin-4-yl)-4-methylphenyl)isonicotinamide], 12.9 nM; with `Cc1ccc(NC(=O)c2ccnc(C(F)(F)F)c2)cc1-c1cc(N2CCOCC2)nc(N2CCOCC2)c1` [Example 1112, N-(3-(2,6-dimorpholinopyridin-4-yl)-4-methylphenyl)-2-(trifluoromethyl)isonicotinamide], 0.83 nM. Still for that read-out and setting: with `Cc1ccc(NC(=O)c2ccnc(C(C)(C)F)c2)cc1-c1cnc(OCCO)c(N2CCOCC2)c1` [Example 997, 2-(2-fluoropropan-2-yl)-N-(3-(6-(2-hydroxyethoxy)-5-morpholinopyridin-3-yl)-4-methylphenyl)isonicotinamide] the figure was 2 nM; with `Cc1ccc(NC(=O)c2ccnc(C3CC3)c2)cc1-c1cc(OCCO)nc(N2CCOCC2)c1` [Example 1157, 2-cyclopropyl-N-(3-(2-(2-hydroxyethoxy)-6-morpholinopyridin-4-yl)-4-methylphenyl)isonicotinamide], 0.43 nM; with `Cc1ccc(NC(=O)c2cccc(C(F)(F)F)c2)cc1-c1ccnc(N2CCOCC2=O)c1` [Example 1134], 4.99 nM. The same measure, in the same setting: with `Cc1ccc(NC(=O)c2ccnc(C(F)F)c2)cc1-c1cc(OCCO)nc(N2CCOCC2)c1` [Example 1160, 2-(difluoromethyl)-N-(3-(2-(2-hydroxyethoxy)-6-morpholinopyridin-4-yl)-4-methylphenyl)isonicotinamide] the figure was 0.55 nM; with `Cc1ccc(NC(=O)c2cnnc(C(F)(F)F)c2)cc1-c1cc(N2CCOCC2)nc(N2CC(O)C2)c1` [Example 1070, N-(3-(2-(3-hydroxyazetidin-1-yl)-6-morpholinopyridin-4-yl)-4-methylphenyl)-6-(trifluoromethyl)pyridazine-4-carboxamide], 2.41 nM.

On to `Cc1ccc(NC(=O)c2ccnc(C(C)(C)O)c2)cc1-c1cc(OC2CCOCC2)nc(N2CCOCC2)c1` [Example 1150, 2-(2-hydroxypropan-2-yl)-N-(4-methyl-3-(2-morpholino-6-((tetrahydro-2H-pyran-4-yl)oxy)pyridin-4-yl)phenyl)isonicotinamide], for which the IC50 is 1.6 nM.

The assay is the same for the next values; noted with them: read-out: b-Raf IC-50; Table 2; AlphaScreen, 3 hours reaction.
As to `Cc1ncc(NC(=O)c2cnnc(C(C)(C)C#N)c2)cc1-c1cncc(N2CCOCC2)c1` [Example 296, 6-(2-cyanopropan-2-yl)-N-(2-methyl-5′-morpholino-[3,3′-bipyridin]-5-yl)pyridazine-4-carboxamide], the IC50 turned out to be 24.7 nM. Same read-out and setting: the figure for `Cc1ccc(C(=O)Nc2cccc(C(F)F)c2)cc1-c1cc(N2CCOCC2)c(=O)n(C)c1` [Example 430, N-(3-(difluoromethyl)phenyl)-4-methyl-3-(1-methyl-5-morpholino-6-oxo-1,6-dihydropyridin-3-yl)benzamide] is 1.6 nM. Same read-out and setting: the figure for `CCOc1ncc(-c2cc(NC(=O)c3cc(C(F)(F)F)c(=O)n(CC)c3)ccc2C)cc1N1CCOCC1` [Example 234, N-(3-(6-ethoxy-5-morpholinopyridin-3-yl)-4-methylphenyl)-1-ethyl-6-oxo-5-(trifluoromethyl)-1,6-dihydropyridine-3-carboxamide] is 1 nM; for `Cc1ncc(NC(=O)c2ccnc(C(C)(C)F)c2)cc1-c1cnc(OC2CCOCC2)c(N2C3CCC2COC3)c1` [Example 279, N-(5′-(3-oxa-8-azabicyclo[3.2.1]octan-8-yl)-2-methyl-6′-((tetrahydro-2H-pyran-4-yl)oxy)-[3,3′-bipyridin]-5-yl)-2-(2-fluoropropan-2-yl)isonicotinamide] it is 3200 nM; for `Cc1ccc(NC(=O)c2cccc(S(C)(=O)=O)c2)cc1-c1ccnc(N2CCOCC2)c1` [Example 68, N-(4-methyl-3-(2-morpholinopyridin-4-yl)phenyl)-3-(methylsulfonyl)benzamide] it is 0.6 nM. Regarding `CCN(C(=O)c1cccc(C(F)(F)F)c1)c1cnc(C)c(-c2cnc(OC3CCOCC3)c(N3CCOCC3)c2)c1` [Example 329, N-ethyl-N-(2-methyl-5′-morpholino-6′-((tetrahydro-2H-pyran-4-yl)oxy)-[3,3′-bipyridin]-5-yl)-3-(trifluoromethyl)benzamide], the IC50 was determined as 1100 nM.

Consider `Cc1ccc(NC(=O)c2cccc(C(F)(F)F)c2)cc1-c1cc(N2CCOCC2)nc(NCCO)n1` [Example 31, N-(3-(2-((2-hydroxyethyl)amino)-6-morpholinopyrimidin-4-yl)-4-methylphenyl)-3-(trifluoromethyl)benzamide], for which the IC50 amounted to 0.7 nM.
